Assay results published in US20090232849A1 (priority 2005, published 2009).
Values joined by “and” are separate entries in the source; they are usually repeats but may differ in a detail not shown here. Equal values may be shown once. “Also recorded” adds a separate entry of the source.

Test system: TLT tumor
Design: species or system mice
Conditions: mouse, in vivo

O=P1(N(CCCl)CCCl)NCCCO1 (centres unmarked) [cyclophosphamide]
regrowth delay to double tumour diameter: 7.73 ± 0.38 days and 7.7 ± 0.4 days
effect of cyclophosphamide alone on regrowth delay (50 mg/kg): No difference in regrowth delay; also recorded: just below the efficacy threshold
